Several values for one entry are separate records, joined by “and”; a condition that tells them apart may be missing. Equal values may be shown once.

The values that follow come from US4902675A, “"2-pyridyl and 4-pyridyl phosphine gold (I) anti tumor complexes"” (SmithKline Beckman Corporation, priority 1986, dated 1990).

The conditions of series [1]: literature, Struck et al. 1966; cited from earlier work.
Series [2] concerns P388 leukemia. Briefly: in vivo ip P388 lymphocytic leukemia mouse model, increase in lifespan. Particulars: mice bearing ip P388 leukemia; ip Days 1 through 5; figures separated by slashes are data from separate experiments; active if ≥25 percent ILS. An excerpt:
P388 lymphocytic leukemia is currently the most widely used animal tumor model for screening for antitumor agents and for detailed evaluation of active compounds. This tumor system is widely accepted as an antitumor agent screening tool because it is sensitive to virtually all of the clinically active antineoplastic agents; quantitative and reproducible; amenable for large-scale screening; and predictive for activity in other animal tumor models.
10^6 P388 leukemia cells are inoculated ip in B6D2F1 mice. Twenty-four hours later, if the tumor inoculum proves to be free of bacterial contamination (as determined by 24 hours incubation in thioglycollate broth), animals are randomized into groups of 6 and housed in shoebox cages. The compound to be evaluated is dissolved in a minimal volume of either N,N-dimethylacetamide (DMA) or 95% ethanol (depending upon solubility). An equal volume of saline is added; if the drug comes out of solution an equal volume of polyethoxylated castor oil is added and then saline qs to a concentration such that the desired dose is delivered in 0.5 ml. The final concentration of DMA, ethanol and polyethoxylated castor oil is […]. Dilutions for lower doses are made with saline so there is a decreasing proportion of organic solvents in the vehicle with decreasing dosage. These vehicles provide soluble formulations (or suspensions). Formulations are prepared immediately prior to injection. The compound is administered ip on Days 1 through 5 (i.e. treatment is initiated 24 hrs after tumor inoculation). Each experiment includes three groups of 6 animals as untreated controls and animals treated with a positive control, cisplatin, at two dose levels. Animals are weighed as a group on Days 1, 5 and 9 and average weight change (Δ wt.) is used as a reflection of toxicity. Each experiment also includes an inoculum titration-groups of 8 mice inoculated ip with 10^5 to 10^0 P388 leukemia cells. The titration is used to calculate cell kill achieved by treatment with drugs. Animals are monitored daily for mortality and experiments are terminated after 45 days. […]

A short description of series [3]: maximally tolerated dose for female mice, ip qDX5 (P388 study). Particulars: B62DF female mice, ip qDX5 regimen. Type of series: in vivo, mouse. How it is done: 10^6 P388 leukemia cells are inoculated ip in B6D2F1 mice. Twenty-four hours later, if the tumor inoculum proves to be free of bacterial contamination (as determined by 24 hours incubation in thioglycollate broth), animals are randomized into groups of 6 and housed in shoebox cages. The compound to be evaluated is dissolved in a minimal volume of either N,N-dimethylacetamide (DMA) or 95% ethanol (depending upon solubility). An equal volume of saline is added; if the drug comes out of solution an equal volume of polyethoxylated castor oil is added and then saline qs to a concentration such that the desired dose is delivered in 0.5 ml. The final concentration of DMA, ethanol and polyethoxylated castor oil is […]. Dilutions for lower doses are made with saline so there is a decreasing proportion of organic solvents in the vehicle with decreasing dosage. These vehicles provide soluble formulations (or suspensions). Formulations are prepared immediately prior to injection. The compound is administered ip on Days 1 through 5 (i.e. treatment is initiated 24 hrs after tumor inoculation). Each experiment includes three groups of 6 animals as untreated controls and animals treated with a positive control, cisplatin, at two dose levels. Animals are weighed as a group on Days 1, 5 and 9 and average weight change (Δ wt.) is used as a reflection of toxicity. Each experiment also includes an inoculum titration-groups of 8 mice inoculated ip with 10^5 to 10^0 P388 leukemia cells. The titration is used to calculate cell kill achieved by treatment with drugs. Animals are monitored daily for mortality and experiments are terminated after 45 days. The endpoint is median survival time (MST) and increase in lifespan (ILS) which is the percentage of increase in MST relative to untreated controls. Untreated controls inoculated ip with 10^6 P388 leukemia cells generally survive for a median of 9 to 11 days. A drug is considered active if it produces ≥25 percent ILS.
^(a) maximally tolerated dose for […] female mice on an ip qDX5

Series [4] concerns B16 melanoma. Briefly: in vivo ip B16 melanoma assay, increase in lifespan. Details: species or system mouse. Particulars: mice bearing ip B16 melanoma; ip qD × 9; ILS ≥25% indicates activity. How it is done: (§1) In this system, groups of eight B6D2F1 mice are inoculated ip with 0.5 ml of a 10% (w:v) brei of B16 melanoma prepared from pooled sc tumors excised at 14-21 days from […] donor mice. Daily treatment is begun 24 hours after tumor impantation and is continued daily for ten (10) days. The route of drug administration is ip. The mice are monitored daily for survival for sixty (60) days. Antitumor activity is assessed by prolongation of median survival time. An ILS of≥25% indicates activity in this tumor model.
(§2) ^(b) maximally tolerated dose for B6D2F1 mice on an ipqD ×
(§3) 9 regimen (Regimen is preferably qD × 10 but supply of Compound No.
(§4) 3 was extinguished on day 9).
^(c) maximum increase in lifespan produced in mice bearing ip B16

Series [5] can be described thus: maximally tolerated dose for B6D2F1 mice, ip qD × 9 (B16 study). It counts as in vivo, mouse. The settings on record: ip qD × 9 regimen. How it is done:
as §1, §2, §3, §4

On to `c1ccc(P(CCP(c2ccccc2)c2ccccc2)c2ccccc2)cc1` [1,2-bis(diphenylphosphino)ethane], for which the cytotoxic activity entry in series [1] is “cytotoxic activity”.

Take `[Cl][Au][PH](CC[PH]([Au][Cl])(c1ccccn1)c1ccccn1)(c1ccccn1)c1ccccn1` [Compound 1, μ-[1,2-Bis(di-2-pyridylphosphino)ethane]bis(chlorogold)]: the “ILS (max), maximum increase in lifespan” value in series [2] is 55% and 60%. Further, in series [3], the “MTD, maximally tolerated dose” value is 6 mg/kg.

For `[Cl][Au][PH](CC[PH]([Au][Cl])(c1ccncc1)c1ccncc1)(c1ccncc1)c1ccncc1` [Compound 2, μ-[1,2-Bis(di-4-pyridylphosphino)ethane]bis(chlorogold)], in series [3], the “MTD, maximally tolerated dose” value turned out to be 12 mg/kg.

Turning to `[Au+].[Cl-].c1ccc(P(CCP(c2ccccn2)c2ccccn2)c2ccccn2)nc1.c1ccc(P(CCP(c2ccccn2)c2ccccn2)c2ccccn2)nc1` [Compound 3, Chlorobis[1,2-bis(di-2-pyridylphosphino)ethane]gold], the “ILS, maximum increase in lifespan” value in series [4] turned out to be 43%. Besides, the “MTD, maximally tolerated dose” value came to 10 mg/kg in series [5] and 8 mg/kg in series [3]. The “ILS (max), maximum increase in lifespan” value in series [2] is 80% and 75% and 83% and 84%.

As for `OCC1OC([S][Au][PH](CC[PH]([Au][S]C2OC(CO)C(O)C(O)C2O)(c2ccccn2)c2ccccn2)(c2ccccn2)c2ccccn2)C(O)C(O)C1O` (stereo not shown) [Compound 4], the “ILS (max), maximum increase in lifespan” value in series [2] was 85% and 53% and 56%. In addition, in series [3], the “MTD, maximally tolerated dose” value came out at 8 mg/kg.
